Experimental data taken from patent publication US20100028427A1, “IMMEDIATE RELEASE FORMULATIONS OF 1-AMINOCYCLOHEXANE COMPOUNDS, MEMANTINE AND NERAMEXANE” (Forest Laboratories, Inc., priority 2004, published 2010).

Test: Solubility and permeability (Biopharmaceutical Classification System)
Assay type: physicochemical

Structure (SMILES): CC12CC3CC(C)(C1)CC(N)(C3)C2.Cl [Memantine HCl, 1-amino-3,5-dimethyladamantane hydrochloride]
- solubility: highly soluble
